According to patent publication US20200282010A1, “IMMUNOGENIC COMPOSITIONS AND USES THEREFOR” (Epiaxis Therapeutics Pty Ltd, priority 2017, published 2020):

Tested on: CD8^+ T-cells of melanoma patient liquid biopsies
Assay: Immunofluorescence of EOMES, TBET and PD-1 (exhaustion signature) in patient CD8+ T-cells
Format: cell-based, human
Conditions: CR, SD and PD cohorts, vehicle or PMA/CI, FIG. 4
Source text: FIG. 4 is graphical representation showing expression of EOMES, TBET and PD-1 in CD8^+ T-cells of melanoma patient liquid biopsies in the presence and absence of PKCθi peptide inhibitor. A) CD8^+ T-cells were isolated from melanoma patient liquid biopsies (CR=complete response, SD=Stable Disease, PD=progression of disease) and were stimulated with PMA/CI and pre-clinically screened with either vehicle control or PKCθi peptide inhibitor. Samples were then fixed and immunofluorescence microscopy was performed on these cells with primary antibodies for EOMES, TBET, and PD-1. Representative images for each dataset are shown. Graph represents the TCFI for PD1, TNFI for EOMES and TNFI for TBET measured using ImageJ to select the nucleus minus background (n=>20 cells/sample). Graphs depicting the % inhibition or induction based on protein expression where also plotted for each protein target relative to untreated sample.
Metastatic Melanoma Biopsies were pre-enriched using the RosetteSep™ method to isolate CTCs by employing the RosetteSep™ Human CD8 enrichment Kit (15063, StemCell Technologies) to isolate CD8+ cells and red blood cells, using density gradient centrifugation with SepMate™-50 (IVD) density gradient tubes (85450, StemCell Technologies) and Lymphoprep™ density gradient medium (07861, StemCell Technologies). […] Digital images were analysed using ImageJ software (ImageJ, NIH, Bethesda, Md., USA) to determine the either the Total Nuclear Fluorescent Intensity (TNFI), the Total Cytoplasmic Fluorescent Intensity (TCFI) or total Fluorescent Intensity (TFI). The plot-profile feature of ImageJ was used to plot the fluorescence signal intensity along a single line spanning the nucleus (n=5 lines per a nucleus, 5 individual cells) using the average fluorescent signal intensity for the indicated pair of antibodies was plotted for each point on the line with SE. […] For each plot-profile the PCC was determined. […]

What does the source list for RKEIDPPFRPKVK [PKCθi]?
TBET expression: enhancing; expression of EOMES (inhibitor 8 mm): inhibiting expression; expression of PD-1 (inhibitor 8 mm): inhibiting expression
